In PMC4900596 (PLoS ONE, 2016):
In brackets after ≈: the same amount, converted by molar mass. Like-named read-outs stand apart in the source and are kept apart here.

How the values were obtained:
[1] = tested on: human peripheral blood mononuclear cells (PBMCs); assay: Cell viability (necrotic changes), calcein-AM/propidium iodide staining, flow cytometry; format: cell-based; details: for concentration from which a decrease in cell viability was noted: significant vs control (P < 0.05); for IC50: PBMC, human PBMCs, 24 h incubation, unit mM printed in b27 only
Description: (§1) PBMCs were isolated from leucocyte-buffy coat collected from blood obtained in Blood Bank in Lodz, Poland. […] The testing was approved by the Bioethics Committee of the University of Lodz No. KBBN-UŁ/I/3/2013. PBMCs were diluted with PBS (1:4) and isolated using LSM (1.077 g/cm^3) by centrifugation at 600 g for 30 min at 20°C. PBMCs were collected, suspended in erythrocyte lysis buffer (150 mM NH4Cl, 10 mM NaHCO3, 1 mM EDTA, pH 7.4) and incubated for 5 min at 20°C. Then, PBS was added immediately, and the cells were centrifuged at 200 g for 15 min at 20°C. The supernatant was decanted, and the cells were washed twice with RPMI with L-glutamine and 10% fetal bovine serum (FBS) at 200 g for 15 min. The cells were resuspended in RPMI medium with L-glutamine, 10% FBS and penicylin-streptomycin (0.5%) and counted in haemocytometer. […] The viability of the cells was over 95%.
The calcein-AM/propidum iodide (PI) viability test is commonly used in toxicity assays to detect cell membrane integrity and to quantify the number of viable and necrotic cells. The calcein-AM is hydrolyzed to calcein, which has a negative charge and penetrates living cells, staining them green. PI is one of the most widely used fluorescent markers for staining of necrotic cells. This compound penetrates the cells, in which membrane was damaged, and binds to DNA. This dye has two positive charges, which prevent it from entering intact cells. […] After the incubation, the samples were centrifuged at 300 g for 5 min at 4°C, the supernatant was decanted, and the cells were supplemented with RPMI with L-glutamine and 10% FBS. The samples were treated with calcein-AM and PI in the final concentrations of 0.1 and 1 μM, respectively and incubated for 15 min at 37°C in total darkness. The analysis was performed by flow cytometry (Becton Dickinson, LSR II). FCM gate on PBMCs has been established for data acquisition, and the fluorescence was measured with excitation/emission maxima of 494/517 nm and 535/617 nm for calcein and PI, respectively. The data were recorded for a total of 10,000 events per sample.

[2] = tested on: human peripheral blood mononuclear cells (PBMCs); assay: Determination of the level of adenosine-5'-triphosphate (ATP), luciferase bioluminescence; format: cell-based; details: for concentration from which a decrease in ATP level was observed / ATP level decreased by up to: 24 h; for concentration from which a decrease in ATP level was observed: significant vs control; for IC50: PBMC, human PBMCs, 24 h incubation, unit inferred, read-out: IC50 for changes in ATP level; for ATP level decreased by up to: 10 mM, control = 100%
Description: as §1
The level of ATP in the cells was determined by bioluminescence measurement at 560 nm using recombinant luciferase and its substrate, D-luciferin. The high sensitivity of method enables detection of 0.1 pM ATP. The reaction proceeds in two stages. In the first step, as a result of the reaction of ATP with luciferin, a complex of adenosine with luciferin is formed with simultaneous releasing of phosphate group. Secondly the complex reacts with oxygen resulting in a formation of oxyluciferin and adenosine monophosphate (AMP). Oxyluciferin returning from its excited state to the base state emits luminescence. The reaction requires the presence of magnesium ions.

[3] = tested on: human peripheral blood mononuclear cells (PBMCs); assay: Measurement of cell morphology: size (FSC-A) and granularity (SSC-A) by flow cytometry; format: cell-based; details: for concentration from which changes in PBMCs granularity (SSC-A) occurred / concentration causing statistically significant changes in FSC-A parameter: 24 h incubation; for activity at 10 µM / activity at 50 µM / activity at 100 µM / activity at 250 µM / activity at 500 µM / activity at 5000 µM: Homo sapiens, PBMC, 4 h; for activity at 10 µM: 0.01 mM; for activity at 50 µM: 0.05 mM; for activity at 100 µM: 0.1 mM; for activity at 250 µM: 0.25 mM; for activity at 500 µM: 0.5 mM; for activity at 5000 µM: 5.0 mM; for increase in FSC-A parameter / increase in SSC-A parameter: strongest change, concentration and time not given
Description: as §1
The cells were then analyzed using a flow cytometry (LSR II; Becton-Dickinson). FMC gate on PBMCs has been established for data acquisition, and cell size and granularity were evaluated with simultaneous separate detection of low-angle (FSC-A) and right-angle (SSC-A) light scattering. […] The light scattered near the forward direction (low angle) is expected to be proportional to particle size (volume), whereas scattering at the right angle depends on cell granularity (internal properties of the scattered particles).

[4] = tested on: choriocarcinoma cell line; details: MTT test; cited from earlier work
PBMCs = details: cited from earlier work
[5] = tested on: HUVEC cell line, human kidney cells 293, placenta JEG3 cells; details: MTT; cited from earlier work
[6] = read-out: FSC-A (percent of control)
[7] = read-out: SSC-A (percent of control)

Row | SMILES | concentration from which a decrease in cell viability was noted ([1]; 24 h) [mM] | IC50 [1] [mM] | concentration from which a decrease in ATP level was observed [2] [mM] | IC50 [2] [mM] | concentration from which changes in PBMCs granularity (SSC-A) occurred [3] [mM] | activity at 10 µM [3, 6] [%] | activity at 10 µM [3, 7] [%] | activity at 50 µM [3, 6] [%] | activity at 50 µM [3, 7] [%] | activity at 100 µM [3, 6] [%] | activity at 100 µM [3, 7] [%] | activity at 250 µM [3, 6] [%] | activity at 250 µM [3, 7] [%] | activity at 500 µM [3, 6] [%] | activity at 500 µM [3, 7] [%] | activity at 5000 µM [3, 6] [%] | activity at 5000 µM [3, 7] [%] | PBMCs viability decreased by up to ([1]; 10 mM, 24 h, control = 100%) [%] | ATP level decreased by up to [2] [%] | concentration causing statistically significant changes in FSC-A parameter [3] [mM] | other results
1 | NCP(=O)(O)O [AMPA, aminomethylphosphonic acid] | ≥ 0.5 | > 10 | ≥ 5 | > 10 | ≥ 5 | 101 ± 4.61 | 101 ± 3.75 | 101 ± 4.45 | 100 ± 3.47 | 101 ± 5.04 | 101 ± 2.26 | 101 ± 3.96 | 101 ± 5.74 | 102 ± 3.93 | 101 ± 5.35 | 99.6 ± 5.18 | 102 ± 4.76 | – | – | – | –
2 | O=P(O)(O)CNCP(=O)(O)O [Bis-(phosphonomethyl)amine, bis-(phosphonomethyl)amine] | ≥ 7.5 | 8.7 | ≥ 0.5 | 5.3 | ≥ 7.5 | 101 ± 2.38 | 98.4 ± 2.94 | 99.7 ± 2.54 | 100 ± 2.55 | 99.6 ± 2.04 | 100 ± 3.68 | 100 ± 2.68 | 100 ± 2 | 101 ± 3.34 | 101 ± 1.12 | 100 ± 3.88 | 103 ± 3.17 | 37.2 | 3.4 | ≥ 7.5 | increase in FSC-A parameter [3]: 9%; increase in SSC-A parameter [3]: 92%
3 | O=C(O)CNCP(=O)(O)O [Glyphosate, N-phosphonomethylglycine, reference compound] | – | > 10 | ≥ 5 | 9.6 | ≥ 0.5 | 102 ± 3.55 | 99.2 ± 4.71 | 102 ± 2.94 | 99.7 ± 7.75 | 102 ± 2.38 | 101 ± 9.59 | 102 ± 4.69 | 101 ± 8.1 | 102 ± 3.89 | 102 ± 5.94 | 101 ± 3 | 104 ± 7.27 | – | – | – | decrease in cell viability ([1]; 10 mM, 24 h, control = 100%): 2.7%; EC50 [4]: 16 mM; IC50 (cytotoxic effects) (PBMCs): 56.4 µg/mL (≈ 334 µM); concentration significantly affecting cell viability [5]: 100 µM
4 | O=P(O)(O)CO [Hydroxy-methylphosphonic acid, hydroxymethylphosphonic acid] | ≥ 7.5 | > 10 | ≥ 5 | > 10 | ≥ 5 | 100 ± 2 | 96.8 ± 4.77 | 100 ± 1.84 | 97.6 ± 4.71 | 100 ± 1.91 | 99.4 ± 1.17 | 101 ± 3.68 | 100 ± 3.33 | 100 ± 2.4 | 101 ± 2.05 | 100 ± 2.94 | 102 ± 2.14 | – | – | – | –
5 | CN(CC(=O)O)CP(=O)(O)O [N-methylglyphosate] | ≥ 7.5 | > 10 | ≥ 0.5 | > 10 | ≥ 5 | 102 ± 3.97 | 101 ± 4.68 | 102 ± 2.66 | 101 ± 4.81 | 103 ± 3.27 | 102 ± 3.57 | 101 ± 5.72 | 102 ± 4.73 | 101 ± 4.66 | 102 ± 8.82 | 100 ± 4.82 | 102 ± 7.27 | – | – | – | –
6 | O=C(O)CN(CC(=O)O)CP(=O)(O)O [PMIDA, N-(phosphonomethyl)iminodiacetic acid] | ≥ 5 | 7.9 | ≥ 5 | 6.1 | 10 | 100 ± 2.09 | 97.5 ± 4.97 | 100 ± 2.21 | 98.1 ± 5.81 | 100 ± 3.36 | 99.2 ± 5.42 | 100 ± 2.65 | 99.3 ± 4.63 | 100 ± 2.65 | 99.8 ± 6.3 | 101 ± 4.59 | 105 ± 5.12 | 3.4 | 2.1 | 10 | increase in FSC-A parameter [3]: 13%; increase in SSC-A parameter [3]: 150%
